In one data set the test system is HBV. In words: Anti-HBV activity: intracellular HBV DNA by quantitative PCR in HepG2.2.15 cells. Particulars: for pEC50: Hepatitis B virus, 168 h, HepG2.2.15 cells, intracellular HBV DNA, day 7 after addition, read-out: EC50 (50% effective concentration), anti-HBV activity. It is filed as cell-based, hepatitis B virus. The procedure:
Anti-HBV activity was evaluated by quantitative PCR for determining the amount of HBV DNA in cells on the seventh day after the addition of the agent, using the HepG2.2.15 cell line of HBV-producing cells obtained by introducing a gene having a length twice that of the HBV genome into the human liver cancer cell line HepG2. For PCR of HBV DNA, a forward primer (HBV-S190F; 5′-GCT CGT GTT ACA GGC GGG-3′: SEQ ID NO: 1) and a reverse primer (HBV-S703R; 5′-GAACCACTGAACAAATGGCACTAGTA-3′: SEQ ID NO: 2) were used. PCR was performed by carrying out a reaction at 95° C. for 10 sec, 62° C. for 10 sec, and 72° C. for 30 sec for 35 cycles.
Specifically, HepG2.2.15 cells were seeded at a concentration of 1×10^5 cells/well. 24 hours later, the compounds of Example 1 and Comparative Example 1 were diluted to have a concentration of 0, 0.49, 0.97, 1.95, 3.90, 7.81, 15.6, 31.3, 62.5, 125, 250, 500, and 1000 nM; and added to the cells. After the cells were cultured for 7 days, each cytoplasmic compartment was collected, and DNA was purified by phenol-chloroform extraction. 20 ng of the purified DNA was used to measure the amount of intracellular HBV DNA by quantitative PCR.
The EC50 (50% effective concentration) was calculated from a graph showing the relationship between the concentration of the compound and anti-HBV activity.

A short description of data set [1]: Cytotoxicity test (WST-1) in HepG2 NTCP-myc cells. The data set is classed as cell-based. The conditions noted are these: human, 7 days culture, read-out: CC50 (50% cytotoxic concentration). The procedure: HepG2 NTCP-myc cells were seeded at a concentration of 2×10^4 cells/well. 24 hours later, agents were diluted to have a concentration of 0, 0.49, 0.97, 1.95, 3.90, 7.81, 15.6, 31.3, 62.5, 125, 250, 500, and 1000 nM; and added to the cells. The HepG2 NTCP-myc cells were cultured for 7 days. After the culture, 10 μl of Premix WST-1 Cell Proliferation Assay System (TaKaRa) was added, and the cells were cultured at 37° C. for 2 hours. Thereafter, absorbance was determined at 450 nm using a microplate reader.
The CC50 (50% cytotoxic concentration) was calculated from a graph showing the relationship between the concentration of the compound and cytotoxicity.
(Tetrazolium assays rely on reduction of a dye to a coloured formazan, in cell work by metabolically active cells.)

A further data set relates to HBs antigen. In words: HBs antigen level in HepG2.2.15 culture supernatant by CLIA. It is filed as cell-based, hepatitis B virus. Particulars: day 4 after addition, compared to Entecavir and Tenofovir disoproxil fumarate (FIG. 2). As to the method: The HBs antigen level was measured by measuring the culture supernatant on the fourth day after the addition of the agent by chemiluminescent immunoassay (CLIA) using HepG2.2.15, i.e., HBV-producing cells obtained by introducing a gene having a length twice that of the HBV genome into the human liver cancer cell line HepG2.

SMILES strings stand for the structures. pEC50: −log10 of the molar value.

The values below come from patent publication US20220008450A1, “ANTI-HEPATITIS B VIRUS AGENT” (DAIKIN INDUSTRIES, LTD., priority 2018, published 2022).

As for `OC[C@H]1O[C@@H](n2cnc3c(Cl)nc(Cl)nc32)[C@@H](F)[C@@H]1O` [Comparative Example 1, 2,6-dichloro-9-((2R,3S,4R,5R)-3-fluoro-4-hydroxy-5-(hydroxymethyl)tetrahydrofuran-2-yl)-9H-purine, reference compound], the pEC50 in the data set with HBV was less than 5.00.

`Nc1nc(F)nc2c1ncn2[C@@H]1O[C@H](CO)C(O)C1F` (stereo partly drawn) [Example 1, 2′-deoxy-2′-fluoro-β-2-fluoro-D-adenosine]: in data set [1], the CC50 at 7 days came out at 337 µM. The “HBs antigen level (relative amount of extracellular HBs antigen)” value with HBs antigen is given as “remarkably reduced”. In addition, the “SI (CC50/EC50)” value with HBV (CC50 (HepG2 NTCP-myc) divided by EC50 (HepG2.2.15)) was 213411. Moreover, the pEC50 in the data set on HBV is 8.80.
